System: Sprague-Dawley rats
Conditions: rat
Procedure: Brief description of the protocol: 16 male Sprague-Dawley rats weighting 100 to 125 g were randomly assigned to 4 groups (4 rats per group (Gp)): Gp1, Phosphate buffer solution (PBS); Gp2, 0.02% benzalkonium chloride (BAK); Gp3, Xalatan®; Gp4, Latanoprost Emulsion. Following general and local anesthesia with ketamine/xylazine and topical Oxybucaïne, respectively, the upper part of the right eye cornea of each rat was scraped with a surgical scalpel following an application of 50 μl of 50% ethanol solution. The upper corneal and limbal epithelia were removed (at day D0). One drop of Tobrex was instilled immediately after the scraping. 2 and 5 hours post scraping one drop of the different test articles were applied onto the cornea of the right eye. These latter instillations were repeated every day for 4 days, and corneal evaluation with an in vivo confocal microscope (IVCM-HRT) was performed on day 4 after the last instillation. At the end of the experimental procedure (the total duration of the treatment is 5 days; from day D0 to D4), the animals were sacrificed and the eyes harvested to characterize the histological organisation of the treated cornea.

benzalkonium chloride [0.02% BAK solution]
IVCM (in vivo confocal microscopy) of superficial epithelium: scar tissue / hypereflectivity: corneal edema and tissue disorganisation
Hematoxylin-eosin staining of treated cornea (epithelium thinning, edema, inflammatory infiltrates) (in vivo): edemas and inflammatory infiltrates are particularly obvious

Reference: US9555045B2, “Use of prostaglandins F2alpha and analogues for the healing of corneal and conjunctival lesions” (SANTEN SAS, priority 2009, dated 2017)
